Patent US6054435A, “6-O-substituted macrolides having antibacterial activity” (priority 1999, dated 2000)
Values after ≈ are worked out from the molar mass of the structure shown.

Experiments:
Assay in all cases: in vitro antibacterial activity (MIC), agar dilution
Assay type in all cases: cell-based
[1] = tested on: Staphylococcus aureus A5177; settings: organism code BB; BHI agar, 35-37° C., 20 to 24 hours; unit assumed
Outline: (§1)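 BHI agar incorporation method; twelve compound concentrations. Streptococcus and other slow growers inoculated at 1:10, other strains at 1:100. Visual MIC read-out versus growth control.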

Escherichia coli JUHL = settings: organism code QQ; BHI agar, 35-37° C., 20 to 24 hours; unit assumed
Outline: as §1

[2] = tested on: Haemophilis Influenzae DILL AMP R; settings: organism code WW; BHI agar, 35-37° C., 20 to 24 hours; unit assumed
Outline: as §1

[3] = tested on: Staphylococcus aureus NCTC10649M; settings: organism code EE; BHI agar, 35-37° C., 20 to 24 hours; unit assumed
Outline: as §1

[4] = tested on: Streptococcus Pneumonia 5979; settings: organism code ZZ; BHI agar, 35-37° C., 20 to 24 hours; unit assumed
Outline: as §1

[5] = tested on: Micrococcus luteus ATCC 9341; settings: organism code OO; BHI agar, 35-37° C., 20 to 24 hours; unit assumed
Outline: (§2)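 Antibacterial MIC determined by agar dilution in BHI agar with twelve successive concentrations; controls comprised compound-free plates and a same-class reference antibiotic. MIC: lowest concentration giving no growth, slight haze or sparsely isolated colonies.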

[6] = tested on: Staphylococcus aureus ATCC 6538P; settings: organism code AA; BHI agar, 35-37° C., 20 to 24 hours; unit assumed
Outline: as §1

[7] = tested on: Streptococcus pyogenes EES61; settings: organism code LL; BHI agar, 35-37° C., 20 to 24 hours; unit assumed
Outline: as §1

[8] = tested on: Streptococcus Pneumonia 5649; settings: organism code ZZA; BHI agar, 35-37° C., 20 to 24 hours; unit assumed
Outline: as §1

[9] = tested on: Staphylococcus aureus 1775; settings: organism code GG; BHI agar, 35-37° C., 20 to 24 hours; unit assumed
Outline: as §1

[10] = tested on: Staphylococcus aureus A-5278; settings: organism code CC; BHI agar, 35-37° C., 20 to 24 hours; unit assumed
Outline: as §1

[11] = tested on: Streptococcus pyogenes PIU 2548; settings: organism code NN; BHI agar, 35-37° C., 20 to 24 hours; unit assumed
Outline: as §1

[12] = tested on: Mycobacterium smegmatis ATCC 114; settings: organism code UU; BHI agar, 35-37° C., 20 to 24 hours; unit assumed
Outline: as §1

Escherichia coli SS = settings: organism code RR; BHI agar, 35-37° C., 20 to 24 hours; unit assumed
Outline: as §1

[13] = tested on: Nocardia Asteroides ATCC9970; settings: organism code VV; BHI agar, 35-37° C., 20 to 24 hours; unit assumed
Outline: as §1

[14] = tested on: Micrococcus luteus ATCC 4698; settings: organism code PP; BHI agar, 35-37° C., 20 to 24 hours; unit assumed
Outline: as §2

[15] = tested on: Streptococcus Pneumonia GYR 1171; settings: organism code YY; BHI agar, 35-37° C., 20 to 24 hours; unit assumed
Outline: as §1

[16] = tested on: Staphylococcus epidermidis 3519; settings: organism code HH; BHI agar, 35-37° C., 20 to 24 hours; unit assumed
Outline: as §1

[17] = tested on: Streptococcus agalactiae CMX 508; settings: organism code KK; BHI agar, 35-37° C., 20 to 24 hours; unit assumed
Outline: as §1

[18] = tested on: Streptococcus pyogenes 930; settings: organism code MM; BHI agar, 35-37° C., 20 to 24 hours; unit assumed
Outline: as §1

Candida albicans CCH 442 = settings: organism code TT; BHI agar, 35-37° C., 20 to 24 hours; unit assumed
Outline: as §1

[19] = tested on: Streptococcus bovis A-5169; settings: organism code JJ; BHI agar, 35-37° C., 20 to 24 hours; unit assumed
Outline: as §1

[20] = tested on: Streptococcus Pneumonia ATCC6303; settings: organism code XX; BHI agar, 35-37° C., 20 to 24 hours; unit assumed
Outline: as §1

[21] = tested on: Enterococcus faecium ATCC 8043; settings: organism code II; BHI agar, 35-37° C., 20 to 24 hours; unit assumed
Outline: as §1

[22] = tested on: Staphylococcus aureus CMX 642A; settings: organism code DD; BHI agar, 35-37° C., 20 to 24 hours; unit assumed
Outline: as §1

Escherichia coli DC-2 = settings: organism code SS; BHI agar, 35-37° C., 20 to 24 hours; unit assumed
Outline: as §1

[23] = tested on: Staphylococcus aureus CMX 553; settings: organism code FF; BHI agar, 35-37° C., 20 to 24 hours; unit assumed
Outline: as §1

Row | SMILES | MIC [1] | MIC (Escherichia coli JUHL) | MIC [2] | MIC [3] | MIC [4] | MIC [5] | MIC [6] | MIC [7] | MIC [8] | MIC [9] | MIC [10] | MIC [11] | MIC [12] | MIC (Escherichia coli SS) | MIC [13] | MIC [14] | MIC [15] | MIC [16] | MIC [17] | MIC [18] | other results
1 | CC[C@H]1OC(=O)[C@H](C)C(=O)[C@H](C)[C@@H](O[C@@H]2O[C@H](C)C[C@H](N(C)C)[C@H]2O)[C@](C)(OC/C=C/c2cncc(-c3nccs3)c2)C[C@@H](C)C(=O)[C@H](C)[C@H]2NC(=O)O[C@@]21C [Example 51] | 0.05 µg/mL (≈ 0.0626 µM) | 100 µg/mL (≈ 125 µM) | 2 µg/mL (≈ 2.5 µM) | 0.1 µg/mL (≈ 0.125 µM) | > 128 µg/mL | 0.01 µg/mL (≈ 0.0125 µM) | 0.1 µg/mL (≈ 0.125 µM) | 0.02 µg/mL (≈ 0.025 µM) | 0.25 µg/mL (≈ 0.313 µM) | > 100 µg/mL | > 100 µg/mL | 0.2 µg/mL (≈ 0.25 µM) | 0.39 µg/mL (≈ 0.488 µM) | 0.2 µg/mL (≈ 0.25 µM) | 0.05 µg/mL (≈ 0.0626 µM) | 0.2 µg/mL (≈ 0.25 µM) | ≤ 0.004 µg/mL | 0.1 µg/mL (≈ 0.125 µM) | 0.01 µg/mL (≈ 0.0125 µM) | 6.2 µg/mL (≈ 7.76 µM) | MIC (Candida albicans CCH 442): > 100 µg/mL; MIC [19]: 0.01 µg/mL (≈ 0.0125 µM); MIC [20]: ≤ 0.004 µg/mL; MIC [21]: 0.05 µg/mL (≈ 0.0626 µM); MIC [22]: 0.1 µg/mL (≈ 0.125 µM); MIC (Escherichia coli DC-2): 25 µg/mL (≈ 31.3 µM); MIC [23]: 0.1 µg/mL (≈ 0.125 µM)
2 | CC[C@H]1OC(=O)[C@H](C)C(=O)[C@H](C)[C@@H](O[C@@H]2O[C@H](C)C[C@H](N(C)C)[C@H]2O)[C@](C)(OC/C=C/c2cncc(-c3cncs3)c2)C[C@@H](C)C(=O)[C@H](C)[C@H]2NC(=O)O[C@@]21C [Example 52] | 0.05 µg/mL (≈ 0.0626 µM) | 100 µg/mL (≈ 125 µM) | 2 µg/mL (≈ 2.5 µM) | 0.05 µg/mL (≈ 0.0626 µM) | > 128 µg/mL | 0.01 µg/mL (≈ 0.0125 µM) | 0.05 µg/mL (≈ 0.0626 µM) | 0.02 µg/mL (≈ 0.025 µM) | 0.25 µg/mL (≈ 0.313 µM) | > 100 µg/mL | > 100 µg/mL | 0.1 µg/mL (≈ 0.125 µM) | 1.56 µg/mL (≈ 1.95 µM) | 0.39 µg/mL (≈ 0.488 µM) | 0.02 µg/mL (≈ 0.025 µM) | 0.2 µg/mL (≈ 0.25 µM) | ≤ 0.004 µg/mL | 0.05 µg/mL (≈ 0.0626 µM) | ≤ 0.005 µg/mL | 100 µg/mL (≈ 125 µM) | MIC (Candida albicans CCH 442): > 100 µg/mL; MIC [19]: 0.01 µg/mL (≈ 0.0125 µM); MIC [20]: ≤ 0.004 µg/mL; MIC [21]: 0.01 µg/mL (≈ 0.0125 µM); MIC [22]: 0.05 µg/mL (≈ 0.0626 µM); MIC (Escherichia coli DC-2): 25 µg/mL (≈ 31.3 µM); MIC [23]: 0.05 µg/mL (≈ 0.0626 µM)
3 | CC[C@H]1OC(=O)[C@H](C)C(=O)[C@H](C)[C@@H](O[C@@H]2O[C@H](C)C[C@H](N(C)C)[C@H]2O)[C@](C)(OC/C=C/c2ccc(-c3cnc(N)s3)s2)C[C@@H](C)C(=O)[C@H](C)[C@H]2NC(=O)O[C@@]21C [Example 53] | 0.1 µg/mL (≈ 0.122 µM) | 50 µg/mL (≈ 61 µM) | 8 µg/mL (≈ 9.77 µM) | 0.1 µg/mL (≈ 0.122 µM) | 16 µg/mL (≈ 19.5 µM) | 0.01 µg/mL (≈ 0.0122 µM) | 0.1 µg/mL (≈ 0.122 µM) | ≤ 0.005 µg/mL | 1 µg/mL (≈ 1.22 µM) | > 100 µg/mL | > 100 µg/mL | 0.1 µg/mL (≈ 0.122 µM) | 3.1 µg/mL (≈ 3.78 µM) | 0.2 µg/mL (≈ 0.244 µM) | 0.1 µg/mL (≈ 0.122 µM) | 0.1 µg/mL (≈ 0.122 µM) | 0.03 µg/mL (≈ 0.0366 µM) | 0.1 µg/mL (≈ 0.122 µM) | 0.01 µg/mL (≈ 0.0122 µM) | 12.5 µg/mL (≈ 15.3 µM) | MIC (Candida albicans CCH 442): > 100 µg/mL; MIC [19]: 0.01 µg/mL (≈ 0.0122 µM); MIC [20]: 0.03 µg/mL (≈ 0.0366 µM); MIC [21]: 0.05 µg/mL (≈ 0.061 µM); MIC [22]: 0.1 µg/mL (≈ 0.122 µM); MIC (Escherichia coli DC-2): 25 µg/mL (≈ 30.5 µM); MIC [23]: 0.1 µg/mL (≈ 0.122 µM)
4 | CC[C@H]1OC(=O)[C@H](C)C(=O)[C@H](C)[C@@H](O[C@@H]2O[C@H](C)C[C@H](N(C)C)[C@H]2O)[C@](C)(OC/C=C/c2ncc(-c3cccnc3)s2)C[C@@H](C)C(=O)[C@H](C)[C@H]2NC(=O)O[C@@]21C [Example 54] | 0.05 µg/mL (≈ 0.0626 µM) | 1.56 µg/mL (≈ 1.95 µM) | 2 µg/mL (≈ 2.5 µM) | 0.1 µg/mL (≈ 0.125 µM) | 4 µg/mL (≈ 5.01 µM) | 0.01 µg/mL (≈ 0.0125 µM) | 0.05 µg/mL (≈ 0.0626 µM) | ≤ 0.005 µg/mL | 0.25 µg/mL (≈ 0.313 µM) | > 100 µg/mL | > 100 µg/mL | 0.1 µg/mL (≈ 0.125 µM) | 3.1 µg/mL (≈ 3.88 µM) | 0.2 µg/mL (≈ 0.25 µM) | 0.01 µg/mL (≈ 0.0125 µM) | 0.05 µg/mL (≈ 0.0626 µM) | 0.03 µg/mL (≈ 0.0375 µM) | 0.05 µg/mL (≈ 0.0626 µM) | ≤ 0.005 µg/mL | 100 µg/mL (≈ 125 µM) | MIC (Candida albicans CCH 442): > 100 µg/mL; MIC [19]: ≤ 0.005 µg/mL; MIC [20]: 0.03 µg/mL (≈ 0.0375 µM); MIC [21]: 0.02 µg/mL (≈ 0.025 µM); MIC [22]: 0.05 µg/mL (≈ 0.0626 µM); MIC (Escherichia coli DC-2): 25 µg/mL (≈ 31.3 µM); MIC [23]: 0.05 µg/mL (≈ 0.0626 µM)
5 | CC[C@H]1OC(=O)[C@H](C)C(=O)[C@H](C)[C@@H](O[C@@H]2O[C@H](C)C[C@H](N(C)C)[C@H]2O)[C@](C)(OC/C=C/c2cnc(-c3cccnc3)s2)C[C@@H](C)C(=O)[C@H](C)[C@H]2NC(=O)O[C@@]21C [Example 55] | 0.05 µg/mL (≈ 0.0626 µM) | 50 µg/mL (≈ 62.6 µM) | 4 µg/mL (≈ 5.01 µM) | 0.1 µg/mL (≈ 0.125 µM) | 2 µg/mL (≈ 2.5 µM) | 0.02 µg/mL (≈ 0.025 µM) | 0.1 µg/mL (≈ 0.125 µM) | 0.05 µg/mL (≈ 0.0626 µM) | 0.25 µg/mL (≈ 0.313 µM) | > 100 µg/mL | > 100 µg/mL | 0.2 µg/mL (≈ 0.25 µM) | 0.39 µg/mL (≈ 0.488 µM) | 0.39 µg/mL (≈ 0.488 µM) | 0.02 µg/mL (≈ 0.025 µM) | 0.2 µg/mL (≈ 0.25 µM) | 0.03 µg/mL (≈ 0.0375 µM) | 0.1 µg/mL (≈ 0.125 µM) | 0.05 µg/mL (≈ 0.0626 µM) | 25 µg/mL (≈ 31.3 µM) | MIC (Candida albicans CCH 442): > 100 µg/mL; MIC [19]: ≤ 0.005 µg/mL; MIC [20]: 0.03 µg/mL (≈ 0.0375 µM); MIC [21]: 0.05 µg/mL (≈ 0.0626 µM); MIC [22]: 0.05 µg/mL (≈ 0.0626 µM); MIC (Escherichia coli DC-2): 50 µg/mL (≈ 62.6 µM); MIC [23]: 0.05 µg/mL (≈ 0.0626 µM)
